Data taken from patent US11111220B2, “Propanamine derivatives for treating pain and pain related conditions” (ESTEVE PHARMACEUTICALS, S.A., priority 2017, dated 2021).
Like-named read-outs stand apart in the source and are kept apart here.

Columns and labels:
[1] = molecular target: Human α2δ-1 Subunit of Cav2.2 Calcium Channel (Homo sapiens, UniProt P54289); assay: Binding assay to human α2δ-1 subunit of Cav2.2 calcium channel ([3H]-Gabapentin); conditions: human α2δ-1 enriched membranes, 15 nM [3H]-Gabapentin, read-out: Ki(nM) alpha2delta Hum
Sequence of Human α2δ-1 Subunit of Cav2.2 Calcium Channel (P54289 25-1103): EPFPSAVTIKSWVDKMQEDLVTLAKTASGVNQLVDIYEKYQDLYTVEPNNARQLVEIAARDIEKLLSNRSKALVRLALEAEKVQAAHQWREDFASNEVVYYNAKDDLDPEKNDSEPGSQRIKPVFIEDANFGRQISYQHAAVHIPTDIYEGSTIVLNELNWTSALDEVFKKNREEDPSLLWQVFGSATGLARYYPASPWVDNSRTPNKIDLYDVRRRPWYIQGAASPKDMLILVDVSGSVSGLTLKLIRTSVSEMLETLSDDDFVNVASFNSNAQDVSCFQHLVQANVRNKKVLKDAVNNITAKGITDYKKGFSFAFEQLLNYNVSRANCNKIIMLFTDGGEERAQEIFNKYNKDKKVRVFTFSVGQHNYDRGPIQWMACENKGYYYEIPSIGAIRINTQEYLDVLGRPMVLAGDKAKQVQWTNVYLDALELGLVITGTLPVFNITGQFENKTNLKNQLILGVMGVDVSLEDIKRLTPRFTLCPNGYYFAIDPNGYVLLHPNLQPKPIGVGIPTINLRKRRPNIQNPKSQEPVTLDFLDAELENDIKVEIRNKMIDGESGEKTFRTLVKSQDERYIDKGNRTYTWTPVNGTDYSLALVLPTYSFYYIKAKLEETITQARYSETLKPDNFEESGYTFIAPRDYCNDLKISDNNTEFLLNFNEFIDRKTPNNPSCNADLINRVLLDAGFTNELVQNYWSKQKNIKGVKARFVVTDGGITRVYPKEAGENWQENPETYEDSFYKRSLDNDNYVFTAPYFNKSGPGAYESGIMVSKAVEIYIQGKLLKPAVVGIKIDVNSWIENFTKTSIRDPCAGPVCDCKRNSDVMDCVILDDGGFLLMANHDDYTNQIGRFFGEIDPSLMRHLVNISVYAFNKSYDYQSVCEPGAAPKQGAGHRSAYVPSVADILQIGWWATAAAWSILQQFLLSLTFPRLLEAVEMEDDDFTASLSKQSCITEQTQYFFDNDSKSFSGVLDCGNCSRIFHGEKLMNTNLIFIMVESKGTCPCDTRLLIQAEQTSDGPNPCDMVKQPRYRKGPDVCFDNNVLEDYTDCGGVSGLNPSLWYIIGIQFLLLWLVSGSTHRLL
Description: Binding Assay to Human α2δ-1 Subunit of Cav2.2 Calcium Channel.
Human α2δ-1 enriched membranes (2.5 μg) were incubated with 15 nM of radiolabeled [3H]-Gabapentin in assay buffer containing Hepes-KOH 10 mM, pH 7.4.
(§1) NSB (non specific binding) was measured by adding 10 μM pregabalin. The binding of the test compound was measured in five different concentrations. After 60 min incubation at 27° C., binding reaction was terminated by filtering through Multiscreen GF/C (Millipore) presoaked in 0.5% polyethyleneimine in Vacuum Manifold Station, followed by 3 washes with ice-cold filtration buffer containing 50 mM Tris-HCl, pH 7.4.
(§2) Filter plates were dried at 60° C. for 1 hour and 30 μl of scintillation cocktail were added to each well before radioactivity reading.
(§3) Readings were performed in a Trilux 1450 Microbeta radioactive counter (Perkin Elmer).

[2] = molecular target: Human Norepinephrine Transporter (NET) (Homo sapiens, UniProt P23975); assay: Binding assay to human norepinephrine transporter (NET) ([3H]-Nisoxetin); conditions: Table 2 (dual compounds); human NET enriched membranes, 5 nM [3H]-Nisoxetin; read-out: Ki(nM) NET Hum
Sequence of Human Norepinephrine Transporter (NET) (P23975 whole entry): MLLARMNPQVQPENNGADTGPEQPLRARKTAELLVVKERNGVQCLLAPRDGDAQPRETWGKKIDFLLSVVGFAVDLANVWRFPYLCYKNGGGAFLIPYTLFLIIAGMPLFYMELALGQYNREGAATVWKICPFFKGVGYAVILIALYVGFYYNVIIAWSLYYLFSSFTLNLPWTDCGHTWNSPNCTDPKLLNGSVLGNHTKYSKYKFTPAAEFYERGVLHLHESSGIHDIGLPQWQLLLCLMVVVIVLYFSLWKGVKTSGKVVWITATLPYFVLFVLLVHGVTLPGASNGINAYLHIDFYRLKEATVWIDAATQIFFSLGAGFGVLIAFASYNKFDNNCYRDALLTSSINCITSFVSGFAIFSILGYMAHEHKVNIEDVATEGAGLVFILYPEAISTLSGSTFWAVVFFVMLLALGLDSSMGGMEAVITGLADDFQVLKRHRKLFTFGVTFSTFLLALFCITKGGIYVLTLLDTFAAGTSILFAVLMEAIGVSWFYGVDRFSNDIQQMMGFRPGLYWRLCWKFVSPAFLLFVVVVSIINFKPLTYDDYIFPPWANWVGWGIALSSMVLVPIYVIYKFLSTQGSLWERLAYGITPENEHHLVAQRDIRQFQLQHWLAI
Description: Binding Assay to Human Norepinephrine Transporter (NET).
Human norepinephrine transporter (NET) enriched membranes (5 μg) were incubated with 5 nM of radiolabeled [3H]-Nisoxetin in assay buffer containing 50 mM Tris-HCl, 120 mM NaCl, 5 mM KCl, pH 7.4.
as §1, with “desipramine.” for “pregabalin.”, “4°” for “27°”, “Tris-HCl, 0.9% NaCl,” for “Tris-HCl,”
as §2, §3

For CNCCC(Oc1cccc(CNCc2ccccc2)c1)c1cccs1 (stereo not drawn) [Example 2, 3-(3-((Benzylamino)methyl)phenoxy)-N-methyl-3-(thiophen-2-yl)propan-1-amine], the Ki ([1]; Table 1) was 500 to 3000 nM, the Ki ([1]; Table 2 (dual compounds)) was 500 to 3000 nM and the Ki [2] was 100 to 500 nM.
CNCCC(Oc1cccc(CN(C)Cc2ccccc2)c1)c1cccs1 (stereo not drawn) [Example 6, 3-(3-((Benzyl(methyl)amino)methyl)phenoxy)-N-methyl-3-(thiophen-2-yl)propan-1-amine] was tested, and the Ki ([1]; Table 1) was 100 to 500 nM, the Ki ([1]; Table 2 (dual compounds)) was 100 to 500 nM and the Ki [2] was 500 to 1000 nM.
In the case of CNCCC(Oc1cccc(C(=O)Nc2ccccc2)c1)c1ccccc1 (stereo not drawn) [Example 13, 3-(3-(Methylamino)-1-phenylpropoxy)-N-phenylbenzamide], the Ki ([1]; Table 1) is reported as ≥ 3000 nM, the Ki ([1]; Table 2 (dual compounds)) is reported as ≥ 3000 nM and the Ki [2] is reported as 500 to 1000 nM.
CNCCC(Oc1cccc(C(=O)Nc2cccc(-c3nnc(C)o3)c2)c1)c1ccccc1 (stereo not drawn) [Example 14, N-(3-(5-methyl-1,3,4-oxadiazol-2-yl)phenyl)-3-(3-(methylamino)-1-phenylpropoxy)benzamide] was tested, and the Ki ([1]; Table 1) was ≥ 3000 nM, the Ki ([1]; Table 2 (dual compounds)) was ≥ 3000 nM and the Ki [2] was 100 to 500 nM.
In the case of CNCCC(Oc1cccc(C(=O)Nc2cccnc2)c1)c1ccccc1 (stereo not drawn) [Example 15, 3-(3-(Methylamino)-1-phenylpropoxy)-N-(pyridin-3-yl)benzamide], the Ki ([1]; Table 1) is reported as ≥ 3000 nM, the Ki ([1]; Table 2 (dual compounds)) is reported as ≥ 3000 nM and the Ki [2] is reported as 100 to 500 nM.
For CNCCC(Oc1cccc(C(=O)NCc2ccccc2)c1)c1ccccc1 (stereo not drawn) [Example 17, N-benzyl-3-(3-(methylamino)-1-phenylpropoxy)benzamide], the Ki ([1]; Table 1) was ≥ 3000 nM, the Ki ([1]; Table 2 (dual compounds)) was ≥ 3000 nM and the Ki [2] was 500 to 1000 nM.
In the case of CNCCC(Oc1cccc(C(=O)NCc2ccccn2)c1)c1ccccc1 (stereo not drawn) [Example 18, 3-(3-(Methylamino)-1-phenylpropoxy)-N-(pyridin-2-ylmethyl)benzamide], the Ki ([1]; Table 1) is reported as ≥ 3000 nM, the Ki ([1]; Table 2 (dual compounds)) is reported as ≥ 3000 nM and the Ki [2] is reported as 500 to 1000 nM.
In the case of CNCCNC(=O)c1cccc(OC(CCNC)c2ccccc2)c1 (stereo not drawn) [Example 20, 3-(3-(Methylamino)-1-phenylpropoxy)-N-(2-(methylamino)ethyl)benzamide], the Ki ([1]; Table 1) is reported as 500 to 3000 nM, the Ki ([1]; Table 2 (dual compounds)) is reported as 500 to 3000 nM and the Ki [2] is reported as 500 to 1000 nM.
CNCCC(Oc1cccc(C(=O)NC2CCN(C)CC2)c1)c1ccccc1 (stereo not drawn) [Example 22, 3-(3-(Methylamino)-1-phenylpropoxy)-N-(1-methylpiperidin-4-yl)benzamide] was tested, and the Ki ([1]; Table 1) was 500 to 3000 nM, the Ki ([1]; Table 2 (dual compounds)) was 500 to 3000 nM and the Ki [2] was ≥ 1000 nM.
In the case of CNCCC(Oc1cccc(N(C)C(=O)c2cccc(CN)c2)c1)c1ccccc1 (stereo not drawn) [Example 27, 3-(Aminomethyl)-N-methyl-N-(3-(3-(methylamino)-1-phenylpropoxy)phenyl)benzamide], the Ki ([1]; Table 1) is reported as ≥ 3000 nM, the Ki ([1]; Table 2 (dual compounds)) is reported as ≥ 3000 nM and the Ki [2] is reported as 500 to 1000 nM.
With CNCCC(Oc1cccc(N(C)C(=O)CCCN)c1)c1ccccc1 (stereo not drawn) [Example 28, 4-Amino-N-methyl-N-(3-(3-(methylamino)-1-phenylpropoxy)phenyl)butanamide] the Ki ([1]; Table 1) was ≥ 3000 nM, the Ki ([1]; Table 2 (dual compounds)) was ≥ 3000 nM and the Ki [2] was 500 to 1000 nM.
In the case of CCNc1ncc(C(=O)N(C)c2cccc(COC(CCNC)c3cccs3)c2)c(N2CCCC2)n1 (stereo not drawn) [Example 38, 2-(Ethylamino)-N-methyl-N-(3-((3-(methylamino)-1-(thiophen-2-yl)propoxy)methyl)phenyl)-4-(pyrrolidin-1-yl)pyrimidine-5-carboxamide], the Ki ([1]; Table 1) is reported as 500 to 3000 nM, the Ki ([1]; Table 2 (dual compounds)) is reported as 500 to 3000 nM and the Ki [2] is reported as 500 to 1000 nM.
In the case of CNCCC(OCc1cccc(NC(=O)c2ccccc2)c1)c1ccccc1 (stereo not drawn) [Example 39, N-(3-((3-(methylamino)-1-phenylpropoxy)methyl)phenyl)benzamide], the Ki ([1]; Table 1) is reported as ≥ 3000 nM, the Ki ([1]; Table 2 (dual compounds)) is reported as ≥ 3000 nM and the Ki [2] is reported as 500 to 1000 nM.
CNCCC(OCc1cccc(NC(=O)c2cnc(OC)nc2)c1)c1ccccc1 (stereo not drawn) [Example 41, 2-Methoxy-N-(3-((3-(methylamino)-1-phenylpropoxy)methyl)phenyl)pyrimidine-5-carboxamide] was tested, and the Ki ([1]; Table 1) was ≥ 3000 nM, the Ki ([1]; Table 2 (dual compounds)) was ≥ 3000 nM and the Ki [2] was 500 to 1000 nM.
In the case of CNCCC(OCc1cccc(NC(=O)c2ccccn2)c1)c1ccccc1 (stereo not drawn) [Example 43, N-(3-((3-(methylamino)-1-phenylpropoxy)methyl)phenyl)picolinamide], the Ki ([1]; Table 1) is reported as ≥ 3000 nM, the Ki ([1]; Table 2 (dual compounds)) is reported as ≥ 3000 nM and the Ki [2] is reported as 500 to 1000 nM.
CNCCC(OCc1cccc(NC(=O)c2ccccc2)c1)c1cccs1 (stereo not drawn) [Example 46, N-(3-((3-(methylamino)-1-(thiophen-2-yl)propoxy)methyl)phenyl)benzamide] was tested, and the Ki ([1]; Table 1) was ≥ 3000 nM, the Ki ([1]; Table 2 (dual compounds)) was ≥ 3000 nM and the Ki [2] was 500 to 1000 nM.
In the case of CNCCC(OCc1cccc(NC(=O)c2ccccc2F)c1)c1cccs1 (stereo not drawn) [Example 48, 2-Fluoro-N-(3-((3-(methylamino)-1-(thiophen-2-yl)propoxy)methyl)phenyl)benzamide], the Ki ([1]; Table 1) is reported as ≥ 3000 nM, the Ki ([1]; Table 2 (dual compounds)) is reported as ≥ 3000 nM and the Ki [2] is reported as 500 to 1000 nM.
In the case of CCNc1ncc(C(=O)Nc2cccc(OC(CCNC)c3ccccc3)c2)c(N2CCCC2)n1 (stereo not drawn) [Example 50, 2-(Ethylamino)-N-(3-(3-(methylamino)-1-phenylpropoxy)phenyl)-4-(pyrrolidin-1-yl)pyrimidine-5-carboxamide], the Ki ([1]; Table 1) is reported as ≥ 3000 nM, the Ki ([1]; Table 2 (dual compounds)) is reported as ≥ 3000 nM and the Ki [2] is reported as 500 to 1000 nM.
With CNCCC(OCc1cccc(Nc2ccccc2)c1)c1ccccc1 (stereo not drawn) [Example 58, 3-((3-(Methylamino)-1-phenylpropoxy)methyl)-N-phenylaniline] the Ki ([1]; Table 1) was ≥ 3000 nM, the Ki ([1]; Table 2 (dual compounds)) was ≥ 3000 nM and the Ki [2] was 100 to 500 nM.
CNCCC(OCc1cccc(N(C(C)=O)c2ccccc2)c1)c1ccccc1 (stereo not drawn) [Example 61, N-(3-((3-(methylamino)-1-phenylpropoxy)methyl)phenyl)-N-phenylacetamide] was tested, and the Ki ([1]; Table 1) was ≥ 3000 nM.
CNCCC(Oc1cccc(N(C)C(C)=O)c1)c1cccs1 (stereo not drawn) [Example 62, N-methyl-N-(3-(3-(methylamino)-1-(thiophen-2-yl)propoxy)phenyl)acetamide] was tested, and the Ki ([1]; Table 1) was ≥ 3000 nM.
With CNCCC(Oc1cccc(N(C)C(=O)c2ccccc2)c1)c1cccs1 (stereo not drawn) [Example 63, N-methyl-N-(3-(3-(methylamino)-1-(thiophen-2-yl)propoxy)phenyl)benzamide] the Ki ([1]; Table 1) was ≥ 3000 nM.
With CCCC(=O)N(C)c1cccc(OC(CCNC)c2cccs2)c1 (stereo not drawn) [Example 64, N-methyl-N-(3-(3-(methylamino)-1-(thiophen-2-yl)propoxy)phenyl)butyramide] the Ki ([1]; Table 1) was ≥ 3000 nM.
In the case of CNCCC(Oc1cccc(N(C)C(=O)c2cccnc2)c1)c1cccs1 (stereo not drawn) [Example 65, N-methyl-N-(3-(3-(methylamino)-1-(thiophen-2-yl)propoxy)phenyl)nicotinamide], the Ki ([1]; Table 1) is reported as ≥ 3000 nM.
CNCCC(Oc1cccc(C(=O)Nc2ccccc2)c1)c1cccs1 (stereo not drawn) [Example 66, 3-(3-(Methylamino)-1-(thiophen-2-yl)propoxy)-N-phenylbenzamide] showed a Ki ([1]; Table 1) of 500 to 3000 nM.
CNCCC(Oc1cccc(C(=O)N(C)c2ccccc2)c1)c1cccs1 (stereo not drawn) [Example 67, N-methyl-3-(3-(methylamino)-1-(thiophen-2-yl)propoxy)-N-phenylbenzamide] was tested, and the Ki ([1]; Table 1) was ≥ 3000 nM.
With CNCCC(Oc1cccc(C(=O)N(C)c2cccnc2)c1)c1ccccc1 (stereo not drawn) [Example 68, N-methyl-3-(3-(methylamino)-1-phenylpropoxy)-N-(pyridin-3-yl)benzamide] the Ki ([1]; Table 1) was ≥ 3000 nM.
In the case of CNCCC(Oc1cccc(C(=O)N(C)c2ccccc2)c1)c1ccccc1 (stereo not drawn) [Example 69, N-methyl-3-(3-(methylamino)-1-phenylpropoxy)-N-phenylbenzamide], the Ki ([1]; Table 1) is reported as ≥ 3000 nM.
For CNCCC(Oc1ccc(CN(C)Cc2ccccc2)c(F)c1)c1cccs1 (stereo not drawn) [Example 70, 3-(4-((Benzyl(methyl)amino)methyl)-3-fluorophenoxy)-N-methyl-3-(thiophen-2-yl)propan-1-amine], the Ki ([1]; Table 1) was ≥ 3000 nM, the Ki ([1]; Table 2 (dual compounds)) was ≥ 3000 nM and the Ki [2] was 100 to 500 nM.
With CNCCC(Oc1ccc(CNCc2ccccc2)c(F)c1)c1cccs1 (stereo not drawn) [Example 71, 3-(4-((Benzylamino)methyl)-3-fluorophenoxy)-N-methyl-3-(thiophen-2-yl)propan-1-amine] the Ki ([1]; Table 1) was ≥ 3000 nM, the Ki ([1]; Table 2 (dual compounds)) was ≥ 3000 nM and the Ki [2] was < 100 nM.
